Structures can show the parent of a compound that is named as a salt. Blank lines part the entries; values can stand above or below the compound they belong to.
Experiments:
[1] = tested on: human A549 lung cancer cell line; experiment: Cell growth inhibition assay (SRB), Example 2, A549; assay type: cell-based
Description: Cell Growth Inhibition Assay. The sulforhodamine B assay was used according to the procedures developed and validated at NCI. […] The values were interpolated from dose-response data.

KB (nasopharyngeal) = experiment: Cell growth inhibition assay (SRB), Example 2, KB; assay type: cell-based, human; conditions: Table 6, 72-h continuous treatment
Description: (§1) Drug-Resistance Study. Twelve active compounds [including four hydrochloride salts (18b, 22b, 24b, 32b) of corresponding active free bases (18a, 22a, 24a, 32a)] were further screened against an extended panel of human tumor cell lines including DU-145 (prostate), ZR-751 (breast), KB (nasopharyngeal), and KB-VIN (multidug-resistant KB subline) in order to explore their antitumor spectra and drug-resistance profiles. Four compounds were used as reference compounds. Antofine is a positional isomer of tylophorine isolated from Asclepiadaceae by Dr. T. S. Wu in Taiwan (Wu, P. L. et al., Heterocycles 2002; 57:2401). […] Doxorubicin (Adriamycin), vincristine, and etoposide (VP-16, Vepesid®) are widely used anticancer agents for treating a range of solid tumors.
(§2) Cell Growth Inhibition Assay. The sulforhodamine B assay was used according to the procedures developed and validated at NCI. The in vitro anticancer activities are expressed as ED50 values, which is the test compound concentration (μM) that reduced the cell number by 50% after 72-h of continuous treatment. The values were interpolated from dose-response data. Each test was performed in triplicate with variation less than 5%. The ED50 values determined in each of independent tests varied less than 10%. Compound stock solutions were prepared in DMSO with the final solvent concentration ≦1% DMSO (v/v), a concentration without effect on cell replication. The cells were cultured at 37° C. in RPMI-1640 supplemented with 25 mM N-2-hydroxyethylpiperazine-N′-2-ethanesulfonic acid (HEPES), […], 10% (v/v) fetal bovine serum, and 100 μg/mL kanamycin in a humidified atmosphere containing 5% CO2.

DU-145 (prostate) = experiment: Cell growth inhibition assay (SRB), Example 2, DU-145; assay type: cell-based, human; conditions: Table 6, 72-h continuous treatment
Description: as §1, §2

ZR-751 (breast) = experiment: Cell growth inhibition assay (SRB), Example 2, ZR-751; assay type: cell-based, human; conditions: Table 6, 72-h continuous treatment
Description: as §1, §2

[2] = tested on: KB-VIN (multidug-resistant KB subline); experiment: Cell growth inhibition assay (SRB), Example 2, KB-VIN; assay type: cell-based, human; conditions: Table 6, 72-h continuous treatment
Description: as §1, §2

[3] = tested on: human A549 lung cancer cell line; experiment: Cell growth inhibition assay (SRB), Example 1; assay type: cell-based; conditions: for EC50: table footnotes of Example 1, A549; for IC50: 72 h, A549, SRB, 3 days exposure
Description: Results and discussion. […] Etoposide (VP-16) was used as the reference compound.
Cell Growth Inhibition Assay. The human A549 lung cancer cell line was used for the cytotoxicity screening of PBT derivatives using the cell-based sulforhodamine B (SRB) microtitre plate assay. […] Duration of compound exposure was 3 days.

[4] = Table 4, ED50, 72-h continuous treatment, NA = not active, read-out: A549 (μM), in vitro anticancer activity against A549 lung cancer cells
[5] = Table 6, 72-h continuous treatment, read-out: EC50 (μM) A549
[6] = Homo sapiens, Table 1, NA = Not Active
[7] = Homo sapiens, A549, 72 h, Table 4, ED50, 72-h continuous treatment, NA = not active, read-out: A549 (μM), in vitro anticancer activity against A549 lung cancer cells
[8] = Homo sapiens, A549, 72 h, Table 6, 72-h continuous treatment, read-out: EC50 (μM) A549

SMILES: COc1ccc2c3c(c4cc(OC)c(OC)cc4c2c1)C[C@H]1CCCN1C3 [Antofine, reference compound]
EC50 [1, 4]: 0.008 µM | EC50 [1, 5]: 0.008 µM | EC50 (KB (nasopharyngeal)): 0.013 µM | EC50 (DU-145 (prostate)): 0.009 µM | EC50 (ZR-751 (breast)): 0.008 µM | EC50 [2]: 0.009 µM

SMILES: COc1ccc2c(CNCCCCC(=O)O)cc3cc4c(cc3c2c1)OCO4
melting point: 145 to 146 °C

SMILES: O=C(O)[C@@H]1CCCN1Cc1cc2cc3c(cc2c2cc(OCc4ccccc4)ccc12)OCO3 [Compound 18, N-(2,3-Methylenedioxy-6-benzyloxy-phenanthr-9-ylmethyl)-L-proline]
IC50 [3, 6]: 4.4 µM | EC50 ([3]; Homo sapiens): 4.4 µM | melting point: 147 to 149 °C

SMILES: COc1ccc2c(CNCCCCCO)cc3cc4c(cc3c2c1)OCO4
melting point: 125 to 126 °C

SMILES: COc1ccc2c(CNCCCCCCO)cc3cc4c(cc3c2c1)OCO4 [Compound 22a, N-(2,3-Methylenedioxy-6-methoxy-phenanthr-9-ylmethyl)-6-aminohexanol]
EC50 [1, 7]: 0.2 µM | EC50 [1, 8]: 0.16 µM | EC50 (KB (nasopharyngeal); Homo sapiens, 72 h): 0.25 µM | EC50 (DU-145 (prostate); Homo sapiens, DU-145, 72 h): 0.04 µM | EC50 (ZR-751 (breast); Homo sapiens, ZR-75-1, 72 h): 0.13 µM | EC50 [2]: 0.35 µM | melting point: 145 to 147 °C

SMILES: COc1ccc2c(CN3CCC[C@H]3CO)cc3cc4c(cc3c2c1)OCO4 [Compound 32, N-(2,3-Methylenedioxy-6-methoxy-phenanthr-9-ylmethyl)-L-prolinol]
IC50 [3, 6]: 0.7 µM | melting point: 138 to 139 °C

SMILES: COc1ccc2c(CN3CCCC[C@H]3CO)cc3cc4c(cc3c2c1)OCO4 [Compound 18b, N-(2,3-Methylenedioxy-6-methoxy-phenanthr-9-ylmethyl)-L-2-piperidinemethanol hydrochloride]
EC50 [1, 5]: 0.16 µM | EC50 (KB (nasopharyngeal)): 0.12 µM | EC50 (DU-145 (prostate)): 0.09 µM | EC50 (ZR-751 (breast)): 0.08 µM | EC50 [2]: 0.09 µM

SMILES: COC(=O)CCCCCNC(=O)c1cc2cc3c(cc2c2cc(OCc4ccccc4)ccc12)OCO3 [Compound 10, Methyl N-(2,3-methylenedioxy-6-benzyloxy-phenanthr-9-ylcarbonyl)-6-aminohexanoate]
IC50 [3, 6]: 41.2 µM

SMILES: CC[C@H]1CN2CCc3cc(OC)c(OC)cc3[C@@H]2C[C@@H]1C[C@H]1NCCc2cc(OC)c(OC)cc21 [Emetine, reference compound]
EC50 [1, 7]: 0.04 µM | EC50 [1, 8]: 0.04 µM | EC50 (KB (nasopharyngeal); Homo sapiens, 72 h): 0.04 µM | EC50 (DU-145 (prostate); Homo sapiens, DU-145, 72 h): 0.06 µM | EC50 (ZR-751 (breast); Homo sapiens, ZR-75-1, 72 h): 0.1 µM | EC50 ([2]; Homo sapiens, KBVIN, 72 h): > 2 µM

SMILES: COc1ccc2c(CN3CCCC[C@H]3CO)cc3cc4c(cc3c2c1)OCO4 [Compound 18a, N-(2,3-Methylenedioxy-6-methoxy-phenanthr-9-ylmethyl)-L-2-piperidinemethanol]
EC50 [1, 5]: 0.2 µM | EC50 (DU-145 (prostate)): 0.21 µM | EC50 (ZR-751 (breast)): 0.1 µM

SMILES: O=C(O)CCCCCNC(=O)c1cc2cc3c(cc2c2cc(OCc4ccccc4)ccc12)OCO3 [Compound 11, N-(2,3-methylenedioxy-6-benzyloxy-phenanthr-9-ylcarbonyl)-6-aminohexanoic acid]
IC50 [3, 6]: 41.2 µM | melting point: 198 to 200 °C

SMILES: O=C(O)[C@@H]1CCCN1C(=O)c1cc2cc3c(cc2c2cc(O)ccc12)OCO3 [Compound 22, N-(2,3-Methylenedioxy-6-hydroxy-phenanthr-9-ylcarbonyl)-L-proline]
IC50 [3, 6]: 39.7 µM | melting point: 230 to 231 °C

SMILES: O=C(O)CCCCCNCc1cc2cc3c(cc2c2cc(OCc4ccccc4)ccc12)OCO3 [Compound 12, N-(2,3-Methylenedioxy-6-benzyloxy-phenanthr-9-ylmethyl)-6-aminohexanoic acid]
IC50 [3, 6]: 1.6 µM | melting point: 184 to 186 °C

Second part, led by results:

EC50 [3]: 9.7 µM
SMILES: COc1ccc2c(CN3CCCC[C@H]3C(=O)O)cc3cc(OC)c(OC)cc3c2c1 [Compound 37, N-(2,3,6-Trimethoxyphenanthr-9-ylmethyl)-L-2-piperidinecarboxylic acid]

EC50 [3]: 6.3 µM
SMILES: COc1ccc2c(CN3CCCC[C@H]3CO)cc3cc(OC)c(OC)cc3c2c1 [Compound 38, N-(2,3,6-Trimethoxyphenanthr-9-ylmethyl)-L-2-piperidinemethanol]

melting point: 293 to 295 °C
SMILES: COc1ccc2c(C(=O)O)cc3cc4c(cc3c2c1)OCO4 [Compound 7b, 2,3-Methylenedioxy-6-methoxy-phenanthrene-9-carboxylic acid]

IC50 ([3]; Homo sapiens, Table 3): 45.2 µM
SMILES: COc1ccc(/C(=C\c2cc(OC)c(OC)cc2[N+](=O)[O-])CN2CCC[C@H]2C(=O)O)cc1 [Compound 40, 1-[3-(4,5-Dimethoxy-2-nitrophenyl)-2-(4-methoxyphenyl)-allyl]-pyrrolidine-2-carboxylic acid]

melting point: 241 to 243 °C
SMILES: COc1ccc2c(C(=O)O)cc3cc(OC)c(OC)cc3c2c1 [Compound 7c, 2,3,6-Trimethoxyphenanthrene-9-carboxylic acid]

EC50 [1, 7]: 0.04 µM | EC50 [1, 8]: 0.04 µM | EC50 (KB (nasopharyngeal); Homo sapiens, 72 h): 0.006 µM | EC50 (DU-145 (prostate); Homo sapiens, DU-145, 72 h): 0.085 µM | EC50 ([2]; Homo sapiens, KBVIN, 72 h): 5.3 µM
SMILES: CC[C@]1(O)C[C@H]2CN(CCc3c([nH]c4ccccc34)[C@@](C(=O)OC)(c3cc4c(cc3OC)N(C=O)[C@H]3[C@@](O)(C(=O)OC)[C@H](OC(C)=O)[C@]5(CC)C=CCN6CC[C@]43[C@@H]65)C2)C1 [Vincristine, reference compound]
EC50 (ZR-751 (breast); Homo sapiens, ZR-75-1, 72 h): 0.04 µM

melting point: 263 to 265 °C
SMILES: O=C(O)c1cc2cc3c(cc2c2cc(OCc4ccccc4)ccc12)OCO3 [Compound 7a, 2,3-Methylenedioxy-6-benzyloxy-phenanthrene-9-carboxylic acid]

melting point: 175 to 177 °C
SMILES: CC(CCCCO)NCc1cc2cc3c(cc2c2cc(OCc4ccccc4)ccc12)OCO3 (centres unmarked)

EC50 [1, 4]: 0.08 µM | EC50 [1, 5]: 0.08 µM | EC50 (KB (nasopharyngeal)): 0.24 µM | EC50 (DU-145 (prostate)): 0.03 µM | EC50 [2]: 0.09 µM
SMILES: COc1ccc2c(CN3CCC(CO)CC3)cc3cc4c(cc3c2c1)OCO4 [Compound 24a, N-(2,3-Methylenedioxy-6-methoxy-phenanthr-9-ylmethyl)-L-4-piperidinemethanol]
EC50 (ZR-751 (breast)): 0.03 µM

IC50 ([3]; Homo sapiens, Table 3): 52.2 µM
SMILES: COc1ccc(/C(=C\c2ccc(OC)c(OC)c2)CN2CCC[C@H]2CO)cc1 [Compound 42, {1-[3-(3,4-Dimethoxyphenyl)-2-(4-methoxyphenyl)allyl]-pyrrolidin-2-yl}-methanol]

melting point: 167 to 169 °C
SMILES: COc1ccc2c(CNCCCCCC(=O)O)cc3cc4c(cc3c2c1)OCO4

melting point: 146 to 148 °C
SMILES: COc1ccc2c(CNCCCCCCCCCCC(=O)O)cc3cc4c(cc3c2c1)OCO4

melting point: 133 to 134 °C
SMILES: COc1ccc2c(CNCCCCCC(=O)O)cc3cc(OC)c(OC)cc3c2c1

IC50 ([3]; Homo sapiens, Table 3): 11.7 µM
SMILES: COc1ccc(/C(=C\c2cc(OC)c(OC)cc2[N+](=O)[O-])CN2CCC[C@H]2CO)cc1 [Compound 41, {1-[3-(4,5-Dimethoxy-2-nitrophenyl)-2-(4-methoxyphenyl)-allyl]-pyrrolidin-2-yl}-methanol]

EC50 [1, 7]: 0.18 µM | EC50 [1, 8]: 0.18 µM | EC50 (KB (nasopharyngeal); Homo sapiens, 72 h): 0.18 µM | EC50 (DU-145 (prostate); Homo sapiens, DU-145, 72 h): 0.13 µM | EC50 ([2]; Homo sapiens, KBVIN, 72 h): > 4 µM
SMILES: COc1cccc2c1C(=O)c1c(O)c3c(c(O)c1C2=O)C[C@@](O)(C(=O)CO)C[C@@H]3O[C@H]1C[C@H](N)[C@H](O)[C@H](C)O1 [Doxorubicin, reference compound]
EC50 (ZR-751 (breast); Homo sapiens, ZR-75-1, 72 h): 0.04 µM

melting point: 122 to 124 °C
SMILES: CCCCCC(CCCCCO)NCc1cc2cc3c(cc2c2cc(OC)ccc12)OCO3 (centres unmarked)

IC50 ([3]; Homo sapiens, Table 3): 80 µM
SMILES: COc1ccc(/C(=C\c2cc(OC)c(OC)cc2[N+](=O)[O-])C(=O)N2CCC[C@H]2C(=O)O)cc1 [Compound 39, 1-[3-(4,5-Dimethoxy-2-nitrophenyl)-2-(4-methoxyphenyl)-acryloyl]-pyrrolidine-2-carboxylic acid]

melting point: 197 to 199 °C
SMILES: O=C(O)CCCCNCc1cc2cc3c(cc2c2cc(OCc4ccccc4)ccc12)OCO3

From patent publication US8188089B2, “Tylophorine analogs as antitumor agents” (The University of North Carolina at Chapel Hill, priority 2006, dated 2012)
